From patent US8124361B2, “Methods of screening for sweet taste modulators” (Givaudan SA, priority 2006, dated 2012) come the findings set out here.

Assay [1] concerns sweet sensitive panelists. The experiment in a line: Ranking test of sweetness isointensity (R-index), sensory panel. The format is in vivo, human. Particulars: for sweetness equivalent to sucrose (isointensity): by interpolation; for sample sweetness (0.5% sucrose) / sample sweetness (p-ethoxybenzaldehyde, 75 ppm): nose clips. On the procedure:
(§1) The sensory evaluation was conducted using a ranking method. Samples at ambient temperature were randomly presented in 15 ml blind aliquots (unidentifiable by panelists). Panels consisted of 10 sweet sensitive subjects and samples were presented in 3 replications over 1 session. After tasting each sample, the mouth was rinsed thoroughly with water at ambient temperature prior to tasting the next sample. […] They were asked to rank the samples from low to high with respect to perceived sweet taste.
as §1, with “taste. […] From ranking-style sensory tests, a matrix of responses (see table X below) is constructed such that each cell contains the number of times a given sample was ranked at a particular location.” for “taste.”
Essentially, the R-index is a measure of difference between two samples. The R-index has a chance level of detection of 50%. […] The critical value is the statistically relevant value that the derived R-index must deviate from (i.e greater or less than) in order to be considered significant.

Assay [2] deals with sweet sensitive panelists. The experiment in a line: Paired comparison of sweetness versus sucrose, sensory panel. Format: in vivo, human.
The target in assay [3] is T1, transmembrane domains of TAS1R (Homo sapiens, UniProt Q7RTX0+Q8TE23, C757R).
T1 sequence (Q8TE23 20-839): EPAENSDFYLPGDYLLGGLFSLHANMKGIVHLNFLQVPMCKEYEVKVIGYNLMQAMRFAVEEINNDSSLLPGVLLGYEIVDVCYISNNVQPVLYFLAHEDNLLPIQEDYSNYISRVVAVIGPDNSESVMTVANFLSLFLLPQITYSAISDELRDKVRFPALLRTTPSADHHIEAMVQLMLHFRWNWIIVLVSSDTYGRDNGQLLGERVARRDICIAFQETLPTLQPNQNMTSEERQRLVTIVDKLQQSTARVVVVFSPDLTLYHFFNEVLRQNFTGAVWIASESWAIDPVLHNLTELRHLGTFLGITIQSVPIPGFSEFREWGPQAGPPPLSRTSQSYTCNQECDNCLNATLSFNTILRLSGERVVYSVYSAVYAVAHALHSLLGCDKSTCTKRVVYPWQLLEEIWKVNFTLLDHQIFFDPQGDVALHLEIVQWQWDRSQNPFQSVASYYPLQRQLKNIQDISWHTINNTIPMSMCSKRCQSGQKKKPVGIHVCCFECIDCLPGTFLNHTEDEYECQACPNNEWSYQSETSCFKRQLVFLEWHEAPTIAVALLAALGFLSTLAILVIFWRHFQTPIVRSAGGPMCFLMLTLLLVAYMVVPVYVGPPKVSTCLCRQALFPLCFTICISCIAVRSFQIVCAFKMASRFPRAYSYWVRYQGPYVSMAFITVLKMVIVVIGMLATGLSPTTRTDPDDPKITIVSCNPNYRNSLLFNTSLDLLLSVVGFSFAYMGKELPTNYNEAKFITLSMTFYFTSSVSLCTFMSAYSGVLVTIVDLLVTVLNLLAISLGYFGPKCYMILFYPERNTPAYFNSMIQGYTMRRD
T1 sequence (Q7RTX0 21-852 C757R): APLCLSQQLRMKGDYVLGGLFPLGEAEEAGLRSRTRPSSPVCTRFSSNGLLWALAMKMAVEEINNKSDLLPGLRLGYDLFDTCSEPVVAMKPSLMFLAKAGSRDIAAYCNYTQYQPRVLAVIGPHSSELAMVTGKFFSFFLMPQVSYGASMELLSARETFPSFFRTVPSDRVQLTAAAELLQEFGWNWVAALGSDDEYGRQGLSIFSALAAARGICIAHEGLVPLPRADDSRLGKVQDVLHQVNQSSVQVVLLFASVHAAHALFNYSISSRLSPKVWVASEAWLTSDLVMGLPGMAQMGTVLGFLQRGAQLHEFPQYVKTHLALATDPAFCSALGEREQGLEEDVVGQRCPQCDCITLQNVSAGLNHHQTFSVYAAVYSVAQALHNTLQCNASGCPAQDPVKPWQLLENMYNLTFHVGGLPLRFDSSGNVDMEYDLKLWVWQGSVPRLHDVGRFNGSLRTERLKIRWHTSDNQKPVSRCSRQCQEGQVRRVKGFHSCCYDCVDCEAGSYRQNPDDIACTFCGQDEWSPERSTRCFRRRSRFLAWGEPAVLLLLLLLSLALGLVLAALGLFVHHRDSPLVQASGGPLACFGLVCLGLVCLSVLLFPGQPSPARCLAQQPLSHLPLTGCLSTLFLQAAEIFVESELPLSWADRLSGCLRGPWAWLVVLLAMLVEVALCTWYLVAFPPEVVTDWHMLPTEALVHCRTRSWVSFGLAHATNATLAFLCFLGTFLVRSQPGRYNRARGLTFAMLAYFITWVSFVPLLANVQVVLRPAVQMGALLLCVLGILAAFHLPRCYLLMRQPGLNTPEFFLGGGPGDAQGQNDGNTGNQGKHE
The experiment in a line: Identification of candidate sweetness enhancers that bind to the transmembrane domains. The format is binding. As to conditions: identified by the applicants as candidate sweetness enhancers.

Each structure is given as a SMILES string.

On to `C[C@@H]1O[C@@H](O[C@H]2[C@H](Oc3cc(O)c(C(=O)CCc4ccc(O)cc4)c(O)c3)O[C@H](CO)[C@@H](O)[C@@H]2O)[C@H](O)[C@H](O)[C@H]1O` [NarDHC, naringin dihydrochalcone], for which the “sweetness equivalent to sucrose (isointensity)” value in assay [1] (60 ppm NarDHC in water) is listed as “about 1.25 % sucrose”. Besides, the Result of comparison entry is given as “weakly sweeter” in assay [2] (45 ppm NarDHC in water vs 0% sucrose); “isosweet” in assay [2] (45 ppm NarDHC in water vs 0.5% sucrose); “less sweet” in assay [2] (45 ppm NarDHC in water vs 1% sucrose); “notably sweeter” in assay [2] (50 ppm NarDHC in water vs 0.5% sucrose); “less sweet” in assay [2] (50 ppm NarDHC in water vs 1% sucrose); “notably sweeter” in assay [2] (55 ppm NarDHC in water vs 0.5% sucrose). The results for the Result of comparison entry in assay [2] (55 ppm NarDHC in water vs 1% sucrose), in assay [2] (60 ppm NarDHC in water vs 1% sucrose) and in assay [2] (60 ppm NarDHC in water vs 1.5% sucrose) were “isosweet”, “notably sweeter” and “significantly less sweet”, respectively. Moreover, in assay [3], the “binding to the transmembrane domains of TAS1R” value (“binding” for short) is “bind to the transmembrane domains of TAS1R”.

With `C[C@H](CC[C@@H](O[C@@H]1O[C@H](CO[C@@H]2O[C@H](CO)[C@@H](O)[C@H](O)[C@H]2O)[C@@H](O)[C@H](O)[C@H]1O[C@@H]1O[C@H](CO)[C@@H](O)[C@H](O)[C@H]1O)C(C)(C)O)[C@H]1CC[C@@]2(C)[C@@H]3CC=C4[C@@H](CC[C@H](O[C@@H]5O[C@H](CO[C@@H]6O[C@H](CO)[C@@H](O)[C@H](O)[C@H]6O)[C@@H](O)[C@H](O)[C@H]5O)C4(C)C)[C@]3(C)[C@H](O)C[C@]12C` [mogroside V], the “binding” value in assay [3] is given as “bind to the transmembrane domains of TAS1R”.

Regarding `CCOc1ccc(C=O)cc1` [p-ethoxybenzaldehyde], the results for the “sample sweetness (0.5% sucrose)” value in assay [1] (0.5% sucrose sample ranked against 100 ppm p-ethoxybenzaldehyde in water) and in assay [1] (0.5% sucrose sample ranked against 150 ppm p-ethoxybenzaldehyde in water) were “isosweet” and “less sweet”, respectively. In assay [1] (7% sucrose and 75 ppm p-ethoxybenzaldehyde), the “sweetness isointensity to sucrose” value is given as 8 % sucrose. Moreover, the “sample sweetness (p-ethoxybenzaldehyde, 75 ppm)” value in assay [1] (75 ppm in water vs 0.5% sucrose) and in assay [1] (75 ppm in water vs 1% sucrose) was “less sweet” each time. Moreover, the p-ethoxybenzaldehyde sample sweetness result is listed as “sweeter” in assay [1] (75 ppm p-ethoxybenzaldehyde in 7% sucrose vs 7% sucrose); “isosweet” in assay [1] (75 ppm p-ethoxybenzaldehyde in 7% sucrose vs 8% sucrose); “less sweet” in assay [1] (75 ppm p-ethoxybenzaldehyde in 7% sucrose vs 9% sucrose); “less sweet” in assay [1] (75 ppm p-ethoxybenzaldehyde in 7% sucrose vs 10% sucrose); “less sweet” in assay [1] (75 ppm p-ethoxybenzaldehyde in 7% sucrose vs 11% sucrose); “sweeter” in assay [1] (100 ppm p-ethoxybenzaldehyde in 1700 ppm cyclamate vs 1700 ppm cyclamate). Moreover, the p-ethoxybenzaldehyde sample sweetness entry in assay [1] (100 ppm p-ethoxybenzaldehyde in 1700 ppm cyclamate vs 1900 ppm cyclamate) is “sweeter”; in assay [1] (100 ppm p-ethoxybenzaldehyde in 1700 ppm cyclamate vs 2100 ppm cyclamate), “isosweet”; in assay [1] (100 ppm p-ethoxybenzaldehyde in 1700 ppm cyclamate vs 2300 ppm cyclamate) it was “less sweet”; in assay [1] (100 ppm p-ethoxybenzaldehyde in 1700 ppm cyclamate vs 2500 ppm cyclamate), “less sweet”. Moreover, the “sweetness equivalent to sucrose (isointensity)” value in assay [1] (75 ppm p-ethoxybenzaldehyde in water, below the detection threshold for sweet) is 0.25 % sucrose. Further, the “sample sweetness (p-ethoxybenzaldehyde, 100 ppm)” value in assay [1] (100 ppm in water vs 150 ppm cyclamate) is “isosweet”; in assay [1] (100 ppm in water vs 200 ppm cyclamate), “less sweet”; in assay [1] (100 ppm in water vs 250 ppm cyclamate), “less sweet”. For the same compound, the “cyclamate equivalent in sweetness added” value in assay [1] (100 ppm p-ethoxybenzaldehyde added to 1700 ppm cyclamate) is 400 ppm cyclamate. Further, the “sweetness A versus B” value in assay [1] (600 ppm (A) vs 700 ppm (B) p-ethoxybenzaldehyde in water), in assay [1] (700 ppm (A) vs 800 ppm (B) p-ethoxybenzaldehyde in water), in assay [1] (800 ppm (A) vs 900 ppm (B) p-ethoxybenzaldehyde in water) and in assay [1] (900 ppm (A) vs 1000 ppm (B) p-ethoxybenzaldehyde in water) was “less sweet than” throughout. Besides, in assay [1] (1700 ppm cyclamate+100 ppm p-ethoxybenzaldehyde), the cyclamate isointensity came to 2100 ppm cyclamate.

As for `C=C1C[C@@]23CC[C@H]4[C@@](C)(CCC[C@@]4(C)C(=O)O[C@@H]4O[C@H](CO)[C@@H](O)[C@H](O)[C@H]4O)[C@@H]2CC[C@]1(O[C@@H]1O[C@H](CO)[C@@H](O)[C@H](O[C@@H]2O[C@H](CO)[C@@H](O)[C@H](O)[C@H]2O)[C@H]1O[C@@H]1O[C@H](CO)[C@@H](O)[C@H](O)[C@H]1O)C3` [rebaudioside A], the “binding” value in assay [3] is on record as “bind to the transmembrane domains of TAS1R”.

As for `C=C1C[C@@]23CC[C@H]4[C@@](C)(CCC[C@@]4(C)C(=O)O[C@@H]4O[C@H](CO)[C@@H](O)[C@H](O)[C@H]4O)[C@@H]2CC[C@]1(O[C@@H]1O[C@H](CO)[C@@H](O)[C@H](O)[C@H]1O)C3` [rubusoside], the “binding” value in assay [3] is “bind to the transmembrane domains of TAS1R”.

As to `C=C1C[C@@]23CC[C@H]4[C@@](C)(CCC[C@@]4(C)C(=O)O[C@@H]4O[C@H](CO)[C@@H](O)[C@H](O)[C@H]4O)[C@@H]2CC[C@]1(O[C@@H]1O[C@H](CO)[C@@H](O)[C@H](O)[C@H]1O[C@@H]1O[C@H](CO)[C@@H](O)[C@H](O)[C@H]1O)C3` [stevioside], the “binding” value in assay [3] was “bind to the transmembrane domains of TAS1R”.
